{"source": "patent US20120219529A1", "about": "“Silver ion compositions of pectins” (George H. Scherr Trust, priority 2011, published 2012)", "origin": "cited, not measured here"}
{"smiles": "[Ag+].[Ag+].[O-2]", "note": "[Ag2O]", "values": [{"measurement": "solubility in water", "result": "insoluble in water"}]}
